Source: US6403586B1, “Pyridazine derivatives and drugs containing the same as the active ingredient” (Kowa Co., Ltd., priority 1998, dated 2002)
Values joined by “and” are separate entries in the source; they are usually repeats but may differ in a detail not shown here. Identical values can stand only once.

Compound	melting point
COC(=O)c1cc(-c2ccc(OC)cc2)nn(C)c1=O [Example 1, 4-Methoxycarbonyl-6-(4-methoxyphenyl)-2-methyl-2H-pyridazin-3-one]	109.2 to 109.5 °C
CCCn1nc(-c2ccc(OC)cc2)cc(C(=O)OC)c1=O [Example 4, 4-Methoxycarbonyl-6-(4-methoxyphenyl)-2-n-propyl-2H-pyridazin-3-one]	106.5 to 107.1 °C and 104.8 to 105.8 °C
CCOC(=O)c1cc(-c2ccc(OC)cc2)nn(C(C)C)c1=O [Example 9, 4-Ethoxycarbonyl-2-isopropyl-6-(4-methoxyphenyl)-2H-pyridazin-3-one]	140.6 to 141.1 °C
CCOC(=O)c1cc(-c2ccc(OC)cc2)nn(CC(C)C)c1=O [Example 10, 4-Ethoxycarbonyl-2-isobutyl-6-(4-methoxyphenyl)-2H-pyridazin-3-one]	83 to 83.3 °C
COC(=O)c1cc(-c2ccc(OC)c(OC)c2)nn(CC(C)C)c1=O [Example 11, 6-(3,4-Dimethoxyphenyl)-2-isobutyl-4-methoxycarbonyl-2H-pyridazin-3-one]	104.2 to 105.5 °C
COC(=O)c1cc(-c2ccc(OC)c(F)c2)nn(CC(C)C)c1=O [Example 12, 6-(3-Fluoro-4-methoxyphenyl)-2-isobutyl-4-methoxycarbonyl-2H-pyridaz in-3-one]	153.3 to 154.9 °C
CCOC(=O)c1cc(-c2ccc(OC)cc2)nn(CC2CC2)c1=O [Example 16, 2-Cyclopropylmethyl-4-ethoxycarbonyl-6-(4-methoxyphenyl)-2H-pyridazin-3-one]	80.1 to 80.9 °C
COC(=O)c1cc(-c2ccc(OC)c(OC)c2)nn(CC2CC2)c1=O [Example 17, 2-Cyclopropylmethyl-6-(3,4-dimethoxyphenyl)-4-methoxycarbonyl-2H-pyridazin-3-one]	136.5 to 137.3 °C
COC(=O)c1cc(-c2ccc(OC)c(F)c2)nn(CC2CC2)c1=O [Example 18, 2-Cyclopropylmethyl-6-(3-fluoro-4-methoxyphenyl)-4-methoxycarbonyl-2H-pyridazin-3-one]	139.6 to 140.7 °C
COC(=O)c1cc(-c2ccc(SC)cc2)nn(CC2CC2)c1=O [Example 20, 2-Cyclopropylmethyl-4-methoxycarbonyl-6-[4-(methylthio)phenyl]-2H-pyridazin-3-one]	100.2 to 101.8 °C
CCOC(=O)c1cc(-c2ccc(OC)cc2)nn(Cc2ccc(Cl)cc2Cl)c1=O [Example 24, 2-(2,4-Dichlorobenzyl)-4-ethoxycarbonyl-6-(4-methoxyphenyl)-2H-pyridazin-3-one]	135.7 to 136.3 °C
COC(=O)c1cc(-c2ccc(OC)cc2)nn(Cc2ccc(N)cc2)c1=O [Example 26, 2-(4-Aminobenzyl)-4-methoxycarbonyl-6-(4-methoxyphenyl)-2H-pyridazin-3-one]	160 to 161.9 °C
COC(=O)c1cc(-c2ccc(OC)cc2)nn(Cc2ccc(NC(=O)c3cccnc3)cc2)c1=O [Example 27, 4-Methoxycarbonyl-6-(4-methoxyphenyl)-2-[4-(3-pyridylcarbonylamino)benzyl]-2H-pyridazin-3-one]	235.7 to 236.9 °C (dec.)
CCOC(=O)c1cc(-c2ccc(OC)cc2)nn(CC=Cc2ccc(Cl)cc2)c1=O [Example 31, 2-(4-Chlorocinnamyl)-4-ethoxycarbonyl-6-(4-methoxyphenyl)-2H-pyridazin-3-one]	127 to 127.9 °C
COC(=O)c1cc(-c2ccc(OC)c(OC)c2)nn(CC=Cc2ccc(Cl)cc2)c1=O [Example 32, 2-(4-Chlorocinnamyl)-6-(3,4-dimethoxyphenyl)-4-methoxycarbonyl-2H-pyridazin-3-one]	117.5 to 118.7 °C
COC(=O)c1cc(-c2ccc(OC)c(F)c2)nn(CC=Cc2ccc(Cl)cc2)c1=O [Example 33, 2-(4-Chlorocinnamyl)-6-(3-fluoro-4-methoxyphenyl)-4-methoxycarbonyl-2H-pyridazin-3-one]	131.3 to 132.3 °C
COC(=O)c1cc(-c2ccc(OC)c(Cl)c2)nn(CC=Cc2ccc(Cl)cc2)c1=O [Example 34, 2-(4-Chlorocinnamyl)-6-(3-chloro-4-methoxyphenyl)-4-methoxycarbonyl-2H-pyridazin-3-one]	179.7 to 181.6 °C
COC(=O)c1cc(-c2ccc(SC)cc2)nn(CC=Cc2ccc(Cl)cc2)c1=O [Example 35, 2-(4-Chlorocinnamyl)-4-methoxycarbonyl-6-[4-(methylthio)phenyl]-2H-pyridazin-3-one]	123.3 to 126.2 °C
COc1ccc(-c2cc(C(N)=O)c(=O)n(CC3CC3)n2)cc1 [Example 39, 4-Carbamoyl-2-cyclopropylmethyl-6-(4-methoxyphenyl)-2H-pyridazin-3-one]	182.2 to 183.3 °C
COc1ccc(-c2cc(C(N)=O)c(=O)n(CC3CCCC3)n2)cc1 [Example 40, 4-Carbamoyl-2-cyclopentylmethyl-6-(4-methoxyphenyl)-2H-pyridazin-3-one]	182.2 to 183.3 °C
COc1ccc(-c2cc(C(N)=O)c(=O)n(CC=Cc3ccc(Cl)cc3)n2)cc1 [Example 42, 4-Carbamoyl-2-(4-chlorocinnamyl)-6-(4-methoxyphenyl)-2H-pyridazin-3-one]	195.1 to 195.5 °C
CNC(=O)c1cc(-c2ccc(OC)cc2)nn(CC#N)c1=O [Example 46, 2-Cyanomethyl-6-(4-methoxyphenyl)-4-methylcarbamoyl-2H-pyridazin-3-one]	153.4 to 154.9 °C
CNC(=O)Cn1nc(-c2ccc(OC)cc2)cc(C(=O)NC)c1=O [Example 47, 6-(4-Methoxyphenyl)-4-methylcarbamoyl-2-methylcarbamoylmethyl-2H-pyridazin-3-one]	250.1 to 250.8 °C
CNC(=O)c1cc(-c2ccc(OC)cc2)nn(CCO)c1=O [Example 49, 2-(2-Hydroxyethyl)-6-(4-methoxyphenyl)-4-methylcarbamoyl-2H-pyridazin-3-one]	160.3 to 160.6 °C
CNC(=O)c1cc(-c2ccc(OC)cc2)nn(C(C)C)c1=O [Example 52, 2-Isopropyl-6-(4-methoxyphenyl)-4-methylcarbamoyl-2H-pyridazin-3-one]	154 to 154.3 °C
CNC(=O)c1cc(-c2ccc(OC)c(OC)c2)nn(CC(C)C)c1=O [Example 53, 6-(3,4-Dimethoxyphenyl)-2-isobutyl-4-methylcarbamoyl-2H-pyridazin-3-one]	111.4 to 112.6 °C
CNC(=O)c1cc(-c2ccc(OC)cc2)nn(CC=C(C)C)c1=O [Example 57, 6-(4-Methoxyphenyl)-2-(3-methyl-2-butenyl)-4-methylcarbamoyl-2H-pyridazin-3-one]	103.6 to 104 °C

Second part, the compound after the results:

melting point	Compound
194.7 to 195.8 °C	CNC(=O)c1cc(-c2ccc(OC)cc2)nn(CC(=O)NCc2ccccn2)c1=O [Example 58, 6-(4-Methoxyphenyl)-4-methylcarbamoyl-2-(2-pyridylmethyl)carbamoylmethyl-2H-pyridazin-3-one]
240.2 to 241.2 °C	CNC(=O)c1cc(-c2ccc(OC)cc2)nn(CC(=O)NCCO)c1=O [Example 59, 2-(2-Hydroxyethyl)carbamoylmethyl-6-(4-methoxyphenyl)-4-methylcarbamoyl-2H-pyridazin-3-one]
116.5 to 118 °C	CNC(=O)c1cc(-c2ccc(SC)cc2)nn(CC2CC2)c1=O [Example 65, 2-Cyclopropylmethyl-4-methylcarbamoyl-6-[4-(methylthio)phenyl]-2H-pyridazin-3-one]
101.3 to 101.6 °C	CCCNC(=O)c1cc(-c2ccc(OC)cc2)nn(CC2CC2)c1=O [Example 67, 2-Cyclopropylmethyl-6-(4-methoxyphenyl)-4-n-propylcarbamoyl-2H-pyridazin-3-one]
119.7 to 120.1 °C	COc1ccc(-c2cc(C(=O)NCc3ccccc3)c(=O)n(CC3CC3)n2)cc1 [Example 68, 4-Benzylcarbamoyl-2-cyclopropylmethyl-6-(4-methoxyphenyl)-2H-pyridazin-3-one]
98.6 to 99.3 °C	COc1ccc(-c2cc(C(=O)NCc3ccccn3)c(=O)n(CC3CC3)n2)cc1 [Example 69, 2-Cyclopropylmethyl-6-(4-methoxyphenyl)-4-(2-pyridylmethyl)carbamoyl-2H-pyridazin-3-one]
181.3 to 181.5 °C	COc1ccc(-c2cc(C(=O)Nc3ccncc3)c(=O)n(CC3CC3)n2)cc1 [Example 70, 2-Cyclopropylmethyl-6-(4-methoxyphenyl)-4-(4-pyridyl)carbamoyl-2H-pyridazin-3-one]
162.8 to 163.3 °C	COc1ccc(-c2cc(C(=O)Nc3ccccc3)c(=O)n(CC3CC3)n2)cc1 [Example 71, 2-Cyclopropylmethyl-6-(4-methoxyphenyl)-4-phenylcarbamoyl-2H-pyridazin-3-one]
107.4 to 107.8 °C	CNC(=O)c1cc(-c2ccc(OC)cc2)nn(CC2CCCC2)c1=O [Example 72, 2-Cyclopentylmethyl-6-(4-methoxyphenyl)-4-methylcarbamoyl-2H-pyridazin-3-one]
109.9 to 110.2 °C	CCCNC(=O)c1cc(-c2ccc(OC)cc2)nn(CC2CCCC2)c1=O [Example 74, 2-Cyclopentylmethyl-6-(4-methoxyphenyl)-4-n-propylcarbamoyl-2H-pyridazin-3-one]
107.6 to 108.1 °C	COc1ccc(-c2cc(C(=O)NCc3ccccc3)c(=O)n(CC3CCCC3)n2)cc1 [Example 75, 4-Benzylcarbamoyl-2-cyclopentylmethyl-6-(4-methoxyphenyl)-2H-pyridazin-3-one]
126.6 to 127.5 °C	COc1ccc(-c2cc(C(=O)NCc3ccccn3)c(=O)n(CC3CCCC3)n2)cc1 [Example 76, 2-Cyclopentylmethyl-6-(4-methoxyphenyl)-4-(2-pyridylmethyl)carbamoyl-2H-pyridazin-3-one]
144.8 to 145.8 °C	COc1ccc(-c2cc(C(=O)NCc3ccccc3)c(=O)n(C)n2)cc1 [Example 77, 4-Benzylcarbamoyl-6-(4-methoxyphenyl)-2-methyl-2H-pyridazin-3-one]
122.4 to 122.9 °C	COc1ccc(-c2cc(C(=O)NCc3ccccn3)c(=O)n(C)n2)cc1 [Example 78, 6-(4-Methoxyphenyl)-2-methyl-4-(2-pyridylmethyl)carbamoyl-2H-pyridazin-3-one]
